The text below walks through data of US9012461B2, “FAK inhibitors” (priority 2011, dated 2015).

For one experiment, the system named is MDA-231-LNA cells. To be noted: 3 days.
The subject of experiment [1] is MDA-231-LNA primary tumours. Nature of the experiment: Combination study, MDA-231-LNA orthotopic xenograft model. It is filed as in vivo, Balb/c SCID mice. Particulars: Avastin 12.5 mg/kg i.p. twice weekly; compound 16 (citrate salt) p.o. 54 mg/kg BID.
Description: Mice harvested for tumour immunohistochemical analysis were not included in Kaplan-Meier analysis.
All bars represent the mean±S.E.M of n=7 mice per group. *p<0.05 and **p<0.01 by one-way ANOVA.
Experiment [2] relates to taxane-sensitive (SKOV3ip1 and HeyA8) and taxane-resistant (HeyA8-MDR) ovarian cancer cell lines. Particulars: in vitro; cited from earlier work.
Experiment [3] deals with HeyA8, SKOV3ip1, and HeyA8-MDR models. Particulars: compared with vehicle-treated controls; cited from earlier work.

Usually IC50 stands for the concentration at which inhibition is half-maximal. Low values mean greater potency in that assay, high ones weaker potency in that assay. Regarding `CCN1CCC(c2ccc(Nc3ncc(C(F)(F)F)c(CCc4ncccc4CC(N)=O)n3)cc2)CC1` [Compound 38, 2-(2-(2-(2-((4-(1-Ethylpiperidin-4-yl)phenyl)amino)-5-(trifluoromethyl)pyrimidin-4-yl)ethyl)pyridin-3-yl)acetamide], in the experiment with MDA-231-LNA cells, the IC50 was greater than 10 µM.
Same read-out and setting: with `NC(=O)Cc1ccccc1CCc1nc(Nc2ccc(C3CCNC3)cc2)ncc1C(F)(F)F` (stereo not drawn) [Compound 35, 2-(2-(2-(2-((4-(pyrrolidin-3-yl)phenyl)amino)-5-(trifluoromethyl)pyrimidin-4-yl)ethyl)phenyl)acetamide] the figure was greater than 10 µM.
Take Avastin: the median survival time in experiment [1] stood at 24 days.
Regarding `CNC(=O)c1ccccc1Nc1nc(Nc2ccc(N3CCOCC3)cc2OC)ncc1Cl` [TAE226], the “phosphorylation of FAK” value in experiment [2] is “inhibited the phosphorylation of FAK at both Y397 and Y861 sites”. Moreover, the “reduction of tumour burden” value in experiment [3] is recorded as 46-64%.
As for `NC(=O)Cc1cccnc1CCc1nc(Nc2ccc(C3CCNCC3)cc2)ncc1C(F)(F)F` [Compound 32, 2-(2-(2-(2-((4-(Piperidin-4-yl)phenyl)amino)-5-(trifluoromethyl)pyrimidin-4-yl)ethyl)pyridin-3-yl)acetamide], the IC50 in the experiment on MDA-231-LNA cells is greater than 5 µM.
